Data: US7019139B2, “Quinolinones and uses thereof” (ARIAD Pharmaceuticals, Inc., priority 2001, dated 2006)

Test: Hydroxyapatite assay (hydroxyapatite adsorption chromatography, bone-targeting potential)
Type: binding
Settings: corrected K = (retention time-void time)/void on TSK-Gel HA 1000 HPLC column; linear gradient 10 mM to 500 mM sodium phosphate, 0.15 N NaCl, pH 6.8
Description: Hydroxyapatite is the principal mineral component of bone. Hydroxyapatite adsorption chromatography is used as an assay to evaluate the bone-targeting potential of both individual bone-targeting moieties (“monomers”) and of pharmaceuticals incorporating bone-targeting groups.
This K value is corrected using two reference compounds to correct from inter-column and inter-system variation to obtain a K′ value.
Reference Compounds: K′ values were determined for known bone targeted compounds, the bisphosphonate, alendronate and tetracycline.

For `NCCCC(O)(P(=O)(O)O)P(=O)(O)O` [Alendronate, alendronate], the “K′ value” was 3.7.
